From PubChem BioAssay AID652239 (Broad Institute, 2013)
Several values for one entry are separate records, joined by “and”; a condition that tells them apart may be missing. Identical values can stand only once. Activity calls are given as the source filed them. No rule for the calls is given here.

Legend:
[1] = Cholera quorum inducers, light production in absence of autoinducers, BH1578 strain, dry powder dose (AID 652239); conditions: V. cholerae BH1578 lux luminescence induction, 6 h
[2] = system: V. cholerae BH1578 lux luminescence induction, 6 h; experiment: as above

Row | Structure (SMILES) | activation ([1]; at 100 µM (top of the series)) | activation ([1]; at 80 µM (top of the series)) | AC40 [2]
1 | O=C(Nc1nnc(-c2ccc3c(c2)OCCO3)o1)C1CC1 | 0.001% (inactive) | – | –
2 | Cn1cnc(=O)c2ccccc21 | – | 0.029% (inactive) | –
3 | CCc1nc(=O)c2ccccc2n1-c1cccc(Cl)c1 | – | 0.079% (inactive) | –
4 | O=C(Cc1ccc(-c2ccccc2)cc1)NC1CCC1 | – | – | 1.26 µM
5 | O=C1C(=O)N(Cc2cccc(Cl)c2)c2ccccc21 | – | 0.06% (inactive) | –
6 | Cc1ccc2cc3c(NC(=O)c4ccoc4)nn(C)c3nc2c1 | – | 0.029% (inactive) | –
7 | CCn1nnnc1/N=C/c1ccc(N2CCCCC2)cc1 | 0.106% (inactive) | – | –
8 | O=C(O)c1ccccc1Nc1cccc(Cl)c1 | – | 0.008% (inactive) | –
9 | O=C(Nc1nnc(-c2ccc3c(c2)OCCO3)o1)C1CCCC1 | – | 1.99% (inactive) | –
10 | Cn1nc(NC(=O)c2ccco2)c2cc3ccc(C(C)(C)C)cc3nc21 | 0% (inactive) | – | –
11 | O=S(=O)(Nc1nnc(-c2ccc3c(c2)OCCO3)o1)c1ccc(Cl)cc1 | -0.004% (inactive) | – | –
12 | O=c1ncn(-c2cccc(Cl)c2)c2ccccc12 | – | – | 14.1 µM and 31 µM
13 | C(=N\c1nnc(-c2ccc3c(c2)OCCO3)o1)/c1ccccc1 | 0.004% (inactive) | – | –
14 | O=c1ncn(-c2ccc(F)c(Cl)c2)c2ccccc12 | – | 9.82% (inactive) | –
15 | O=C(Nc1nnc(-c2ccc3c(c2)OCCO3)o1)C(F)(F)c1ccccc1 | -0.004% (inactive) | – | –
16 | CCn1nnnc1NC(C)c1ccc(N2CCCC2)cc1 (stereo unspecified) | 11.5% (inactive) | – | –
17 | O=C(Cc1ccc(-c2ccccc2)cc1)NC1CNC1 | 0.01% (inactive) | – | –
18 | O=C(Nc1nnc(-c2ccccc2Cl)o1)C1CCCCC1 | 0.003% (inactive) | – | –
19 | O=C(Nc1nnc(-c2ccc(Cl)cc2)o1)C1CCCCC1 | – | -0.011% (inactive) | –
20 | O=c1[nH]cnc2ccccc12 | – | 0.09% (inactive) | –
21 | O=c1ncn(-c2cc(Cl)cc(Cl)c2)c2ccccc12 | – | – | 4.71 µM
22 | Cc1cccc(-n2cnc(=O)c3ccccc32)c1 | – | – | 75.9 µM
23 | O=C(Nc1nnc(-c2ccncc2)o1)C1CCC1 | 0.028% (inactive) | – | –

Row | Structure (SMILES) | activation ([1]; at 100 µM (top of the series)) | activation ([1]; at 80 µM (top of the series)) | AC40 [2]
24 | Cc1ccc2cc3c(NC(=O)c4ccco4)nn(C)c3nc2c1 | – | – | 11.6 µM and 16.6 µM
25 | Cn1nc(NC(=O)c2ccco2)c2cc3ccccc3nc21 | – | – | 5.43 µM
26 | CCc1ccc2cc3c(NC(=O)c4ccco4)nn(C)c3nc2c1 | – | – | 58.9 µM
27 | O=c1ncn(Cc2ccc(Cl)cc2)c2ccccc12 | – | 0.451% (inactive) | –
28 | O=C(CSc1nc2ccccc2c(=O)[nH]1)NC1CCCCC1 | – | 0.004% (inactive) | –
29 | CCC(C)(C)C(=O)Nc1nnc(-c2ccc3c(c2)OCCO3)o1 | – | -0.001% (inactive) | –
30 | COc1ccc(-c2nnc(NC(C)=O)o2)cc1 | 0.028% (inactive) | – | –
31 | O=C(CSc1nc2c(c(=O)[nH]1)CCCC2)NC1CCCCC1 | – | 0.193% (inactive) | –
32 | O=c1ncn(-c2cccc(F)c2)c2ccccc12 | – | – | 33.8 µM
33 | Cn1nc(NC(=O)c2ccco2)c2cccnc21 | – | – | 22.2 µM
34 | O=C(Cc1ccc(-c2ccccc2)cc1)NC1COC1 | – | – | > 100 µM (inactive)
35 | O=c1ncn(-c2ccccc2)c2ccccc12 | – | – | > 80 µM (inactive)
36 | O=c1ncn(-c2ccc(Cl)cc2)c2ccccc12 | – | 0.028% (inactive) | –
37 | O=C(Nc1nnc(-c2cccc(Cl)c2)o1)C1CCCCC1 | – | 0.061% (inactive) | –
38 | O=C(Nc1nnc(-c2cccnc2)o1)C1CCC1 | -0.001% (inactive) | – | –
39 | O=c1ncn(-c2cccc(Cl)c2)c2ccc(Cl)cc12 | – | 8.89% (inactive) | –
40 | O=c1nc(-c2ccccc2)n(-c2cccc(Cl)c2)c2ccccc12 | – | -0.006% (inactive) | –
41 | CCCCCCCCCC(=O)C(O)CC (stereo unspecified) | – | – | 5.27 µM
42 | NC(=O)c1ccccc1Nc1ccccc1 | – | 0.161% (inactive) | –
43 | COc1ccccc1-c1nnc(NC(=O)C2CCCCC2)o1 | – | – | > 100 µM (inactive)
44 | COc1ccc2cc3c(NC(=O)c4ccco4)nn(C)c3nc2c1 | – | – | 3.82 µM
45 | CN(C)/C=N/c1nnc(-c2ccc3c(c2)OCCO3)o1 | 0.022% (inactive) | – | –
46 | COc1cccc(-c2nnc(NC(=O)C3CCCCC3)o2)c1 | -0.002% (inactive) | – | –
